This note sets out measurements from US20130261024A1, “System for Identifying Connections Between Perturbagens and Genes Associated with a Skin Hyperpigmentation Condition” (THE PROCTER & GAMBLE COMPANY, priority 2012, published 2013).

Assay [1] relates to teleomerized human keratinocytes (tKC). The assay is described as follows: C-map query with the Retinoic Acid/Keratinocyte 200 benchmark signature. Format: cell-based. To be noted: Retinoic Acid Keratinocyte RA-200 signature. The protocol: (§1) Individual experiments (referred to as batches) generally comprise 30 to 96 samples analyzed using Affymetrix GeneChip® technology platforms, containing 6 replicates of the vehicle control (e.g., DSMO), 2 replicate samples of a positive control that gives a strong reproducible effect in the cell type used, and samples of the test material/perturbagen. Replication of the test material is done in separate batches due to batch effects. In vitro testing was performed in 6-well plates to provide sufficient RNA for GeneChip® analysis (2-4 μg total RNA yield/well).
(§2) Human telomerized keratinocytes (tKC) were obtained from the University of Texas, Southwestern Medical Center, Dallas, Tex. tKC cells were grown in EpiLife® media with 1× Human Keratinocyte Growth Supplement (Invitrogen, Carlsbad, Calif.) on collagen I coated cell culture flasks and plates (Becton Dickinson, Franklin Lakes, N.J.). Keratinocytes were seeded into 6-well plates at 20,000 cells/cm^2 24 hours before chemical exposure. […]
(a) Tert-keratinocytes (tKC) RA Signatures. […] Cells were treated with 1 uM tRA for 6 hr, tested in triplicate, with triplicate DMSO controls, and analyzed on HG-U133A GeneChips. […]

Assay [2] relates to tert-Keratinocyte (tKC) cells. Kind of assay: C-map query with the composite "skin tone" benchmark signature (Niacinamide, Sepiwhite, NAG, Hexamidine). Format: cell-based, human. To be noted: composite signature of Example 3. The protocol: as §1
as §2, with “exposure. Human skin fibroblasts (BJ cell line from ATCC, Manassas, Va.) were grown in Eagle's Minimal Essential Medium (ATCC) supplemented with 10% fetal bovine serum (HyClone, Logan, Utah) in normal cell culture flasks and plates (Corning, Lowell, Mass.). BJ fibroblasts were seeded into 6-well plates at 12,000 cells/cm^2 24 hours before chemical exposure.” for “exposure.”

Assay [3] has as its system hyperpigmented spots. The assay is described as follows: 9-week randomized, double-blind, vehicle-controlled, split-face tone benefit clinical study. Format: in vivo, Chinese females. To be noted: 0.05% in SC-99 vehicle. The source says:
This Example provides evidence of the advantages of using composite signatures and illustrates clinical affirmation of the C-map model for predicting efficacy of skin-lightening agents. This Example supports embodiments related to composite signatures (as described at the end of Example 3). An illustrative “Skin Tone” Signature developed from a genomics study using a composite skin-lightening benchmark agent signature is derived from Niacinamide, Hexamidine, Sepiwhite, and NAG. The signature is used to query C-map and generate a list of potential skin-lightening agents. A top hit, Chlorhexidine Diactate (CD) is entered into clinical testing for confirmation of efficacy. The control for clinical efficacy is a 5% Niacinamide+1% Sepiwhite formulation in the control vehicle.
Primary endpoints are changes in color spot area fraction (image analysis) and melanin spot area fraction (NC2) from baseline. Secondary endpoints are changes from baseline in L*a*b (color image analysis), mean melanin gray scale (NC2), and melanin evenness (NC2). Texture area fraction and pore area fraction are also evaluated to explore impact on other aspects relating to overall skin tone. […] Statistically significant superiority to the high efficacy benchmark skin active agent to vehicle performance is the clinical success criteria.
Study Design: The experimental protocol included a 9-week (1-week preconditioning & 8-week treatment), randomized, double-blind, round robin, vehicle-controlled, split-face tone benefit study. The subject population included 330 Chinese females, 25-55 years old with hyperpigmented spots. 318 subjects completed the entire study. […] Olay Complete SPF 15 UV Moisturizing Lotion is concomitantly used during pre-conditioning and treatment. 0.5 g each test product per half-face (forehead to jaw line; ˜4 mg/cm^2) is dosed 2× a day (morning/evening). Color SAF and treatment area, Melanin SAF, gray scale, evenness by NC2, and additional measurement of Fine Lines and Wrinkle and Texture are by REAL 3.01A. Data collection points include baseline, and ends of weeks 4, 6 and 8. The tested hypothesis is that there is no difference in clinical endpoint versus the benchmark composition treatment. Study site is Kuntai Clinical Center, Beijing, China and study time frame is February 2010 (pre-conditioning) to April 2010.

With `CC1=C(/C=C/C(C)=C/C=C/C(C)=C/C(=O)O)C(C)(C)CCC1` [Retinoic acid, all-trans-retinoic acid], the “average C-map score” value in assay [1] is recorded as “highest score of the materials tested”.
In the case of `CC(=O)O.CC(=O)O.NC(=N\CCCCCC/N=C(N)/N=C(\N)Nc1ccc(Cl)cc1)/N=C(\N)Nc1ccc(Cl)cc1` [CD, Chlorhexidine Diacetate], the “connectivity to tone composite benchmark signature query” value in assay [2] is “top connectivity hit”. Also, in assay [3] (compared to vehicle, week 8), the Pore area fraction result is recorded as “superior efficacy”, the Texture area fraction entry is on record as “superior efficacy” and the “spot area fraction color test” value is given as “significantly fewer spots”. Also, the “spot area fraction NC2 test” value in assay [3] (compared to vehicle, weeks 6 and 8) was “significantly reduced fraction”. In addition, the Basal skin tone entry in assay [3] (versus vehicle, week 8) was “superiority”. In assay [3] (versus vehicle, weeks 6 and 8), the “NC2 Melanin evenness test” value is reported as “superiority to the vehicle”.
